Reference: patent publication EP0791044B1, “HYDROPHOBIC PEROXYACID BLEACH PRECURSOR COMPOSITIONS STABILISED WITH A WATER SOLUBLE CARBOXYLIC ACID” (THE PROCTER & GAMBLE COMPANY, priority 1994, dated 1996)

Test: Beaker Perhydrolysis Test (Sotax Dissolution Tester) of model detergent formulation containing the precursor material
Assay type: physicochemical
Conditions: for peroxyacid yield: percent of the theoretically available weight of peracid
Procedure: For the purpose of the present invention, unrestrained dissolution conditions are defined as those existing in the Beaker Perhydrolysis Test as carried out using a Sotax Dissolution Tester Model AT6 supplied by Sotax AG CH-4008 BASEL Switzerland. This Apparatus comprises an array of polycarbonate beakers, each capable of holding 1 litre of water, supported in a thermostatically controlled water bath. Each beaker is provided with a paddle stirrer whose speed can be controlled.
Add 5ml potassium iodide solution to the first titration beaker. • 7- Take a 10ml aliquot from Sotax beaker No. 1 and discharge into the first titration beaker at t=1 minute. • 8- Add the second sample to Sotax beaker No.2 at t= 1 minute and add 5 ml potassium iodide to a second titration beaker. • 9- Titrate the first aliquot against 0.005 M sodium thiosulphate solution until the solution is first decolourised (The colour is slowly regenerated as the solution warms and the perhydrate reacts with the iodide). • 10- Take a 10 ml aliquot from Sotax beaker No.2 at t= 2 minutes and discharge into the second titration beaker and repeat step . • 11- Take further aliquots at the following times (t= minutes)
The aliquots from Beaker No. 1 at 1 minute and from Beaker No. 2 at 2 minutes constitutes replicates and the results are averaged to give a figure from which the % perhydrolysis is calculated.
Material from each example was then incorporated into a model detergent formulation having the composition in % by weight.
The four formulations were then subjected to a Beaker Perhydrolysis Test as hereinbefore described and gave the peroxyacid yields shown in Table 1. Results are given for 1, 3, 5 & 10 minutes elapsed time and are expressed in percent of the theoretically available weight of peracid.

Compound | peroxyacid yield (3 minutes from start of perhydrolysis, Temperature = 30°C, hard water (25° Clarck)) [%] | peroxyacid yield (5 minutes from start of perhydrolysis, Temperature = 30°C, hard water (25° Clarck)) [%] | peroxyacid yield (10 minutes from start of perhydrolysis, Temperature = 30°C, hard water (25° Clarck)) [%] | perhydrolysis rate (effect of agglomeration with citric acid versus raw material form, 40°C) | peroxyacid yield (1 minute from start of perhydrolysis, Temperature = 40°C, water 12° Clark) [%] | peroxyacid yield (3 minutes from start of perhydrolysis, Temperature = 40°C, water 12° Clark) [%] | peroxyacid yield (5 minutes from start of perhydrolysis, Temperature = 40°C, water 12° Clark) [%] | peroxyacid yield (10 minutes from start of perhydrolysis, Temperature = 40°C, water 12° Clark) [%]
CCCCCCCCCC(=O)NCCCCCC(=O)Oc1ccc(S(=O)(=O)O)cc1 [C10 oxybenzenesulfonate (raw material), (6-decanamido-caproyl) oxybenzenesulfonate] | 25 | 31 | 34 |  |  |  |  | 
benzoyl caprolactam [3 (benzoyl caprolactam)] |  |  |  | No such enhancement | 14 | 37 | 52 | 71
